Experiments:
Type in all cases: cell-based
[1] = test system: Wnt activity (Sp5-Luc reporter, Wnt-responsive promoter) in SW480 colon carcinoma cells; experiment: Wnt activity screening assay: Sp5-Luc reporter gene assay in SW480 cells; settings: Homo sapiens; for EC50: overnight incubation, 10-point curve starting from 10 μM; for inhibition at 10 µM: read-out: percent inhibition at 10 μM (given for EC50 of >10 μM)
Description: The screening assay for Wnt activity is described as follows. Reporter cell lines can be generated by stably transducing cancer cell lines (e.g., colon cancer) or primary cells (e.g., IEC-6 intestinal cells) with a lentiviral construct that includes a Wnt-responsive promoter driving expression of the firefly luciferase gene.
SW480 colon carcinoma cells were transduced with a lentiviral vector expressing luciferase with a human Sp5 promoter consisting of a sequence of eight TCF/LEF binding sites. SW480 cells stably expressing the Sp5-Luc reporter gene and a hygromycin resistance gene were selected by treatment with 150 μg/mL of hygromycin for 7 days. These stably transduced SW480 cells were expanded in cell culture and used for all further screening activities. Each compound was dissolved in DMSO as a 10 mM stock and used to prepare compound source plates. Serial dilution (1:3, 10-point dose-response curves starting from 10 μM) and compound transfer was performed using the ECHO 550 (Labcyte, Sunnyvale, Calif.) into 384-well white solid bottom assay plates (Greiner Bio-One) with appropriate DMSO backfill for a final DMSO concentration of 0.1%. For Sp5-Luc reporter gene assays, the cells were plated at 4,000 cells/well in 384-well plates with medium containing 1% fetal bovine serum and incubated overnight at 37° C. and 5% CO2. Following incubation, 20 μl of BrightGlo luminescence reagent (Promega) was added to each well of the 384-well assay plates. The plates were placed on an orbital shaker for 2 min and then luminescence was quantified using the Envision (Perkin Elmer) plate reader. Readings were normalized to DMSO only treated cells, and normalized activities were utilized for EC50 calculations using the dose-response log (inhibitor) vs. response-variable slope (four parameters) nonlinear regression feature available in GraphPad Prism 5.0 (or Dotmatics). For EC50 of >10 μM, the percent inhibition at 10 μM is provided.

SW480 colon cancer cells = experiment: Cell viability assay (CellTiter-Blue) in SW480 cells; settings: Homo sapiens, 96 h, four days; for EC50: CellTiter-Blue, 10 μM to 0.0045 μM; for inhibition at 10 µM: read-out: percent inhibition at 10 μM (given for EC50 of >10 μM)
Method: Representative compounds were screened using the following assay procedure to assess the effect on cell viability as described below.
Each compound was dissolved in DMSO as a 10 mM stock and used to prepare compound source plates. Serial dilution (1:3, 8-point dose-response curves from 10 μM to 0.0045 μM) and compound transfer was performed using the ECHO 550 (Labcyte, Sunnyvale, Calif.) into 96-well clear bottom, black-walled plates (Corning-Costar).
Approximately 2×10^3 SW480 colon cancer cells were seeded into each well and allowed to incubate in the presence or absence of compound for four days at 37° C./5% CO2. Eight replicates of DMSO-treated cells served as controls and cells treated with compound were performed in duplicate.
After incubation, 20 μL of CellTiter-Blue (Promega) was added to each well allowed to incubate for approximately 3 hours. This reagent was a buffered solution which contains resazurin, metabolically active cells were able to reduce rezarurin (blue) into resorufin (pink) which was highly fluorescent. This measured fluorescence was used as a readout for cell viability.
After incubation, the plates were read at Ex 560 nm Em 590 nm (Cytation 3, BioTek). Dose-response curves were generated and EC50 concentration values were calculated using non-linear regression curve fit in the GraphPad Prism (San Diego, Calif.) or Dotmatics' Studies Software (Bishops Stortford, UK). For EC50 of >10 μM, the percent inhibition at 10 μM is provided.

IL-6 (THP-1 cells) = experiment: IL-6 inhibition in LPS-stimulated THP-1 monocytes (HTRF); settings: Homo sapiens, IL-6 HTRF; for EC50: 500 ng/mL LPS, Table 6; for inhibition at 10 µM: LPS, Table 6, read-out: percent inhibition at 10 μM (given in parentheses for EC50 >10 μM)
Method: Human Monocyte Cell Culture: Human monocyte cell line (THP-1 cells; Catalog # TIB-202, ATCC, Manassas, Va.) were cultured in Roswell Park Memorial Institute (RPMI) 1640 Medium (Catalog #21870-100, Buffalo, N.Y.) with 1% L-glutamine, 1% HEPES, 1% Sodium Pyruvate, 2% Sodium Bicarbonate supplemented with 100 units/mL penicillin, 50 μg/mL streptomycin, 2-mercaptoethanol (0.05 mM) [basal medium] and 10% fetal bovine serum (Catalog #16140089, Life Technologies, Carlsbad, Calif.) at 37° C. and 5% CO2.
Compound Screening: THP-1 cells were cultured in basal media with 1% FBS for 24 hours before the start of the assay. Each compound was dissolved in DMSO as a 10 mM stock and used to prepare compound source plates. Serial dilution (1:3, 10-point dose-response curves starting from 10 μM) and compound transfer was performed using the ECHO 550 (Labcyte, Sunnyvale, Calif.) into 384-well white low volume assay plates (Greiner Bio-One) with appropriate DMSO backfill for a final DMSO concentration of 0.1%. THP-1 cells were plated at 5000 cells/well in the 384-well plates and incubated at 37° C. for 2 h. 500 ng/mL of LPS was added after 2 hours and cells were incubated for another 22 hours at 37° C. Plates were spun in a centrifuge for 1 minute at […] and a mixture of anti-IL6 XL665, and anti-IL6 Cryptate diluted in reconstitution buffer (Cisbio Inc.) was added to each well. Following incubation for 3 hrs at room temperature, Homogeneous Time-Resolved Fluorescence (HTRF) was measured using the Envision (Perkin Elmer) at 665 nm and […]. The ratio of fluorescence at 665 nm to 620 nm was used as a readout for IL6 quantification. All samples were processed in duplicate. Readings were normalized to DMSO treated cells and normalized activities were utilized for EC50 calculations using the dose-response log (inhibitor) vs. response-variable slope (four parameters) nonlinear regression feature available in GraphPad Prism 5.0 (or Dotmatics). For EC50 of >10 μM, the percent inhibition at 10 μM is provided.

Structure (SMILES) | EC50 [1] | EC50 (SW480 colon cancer cells) | EC50 (IL-6 (THP-1 cells)) | inhibition at 10 µM (IL-6 (THP-1 cells)) | inhibition at 10 µM [1] | inhibition at 10 µM (SW480 colon cancer cells)
Fc1cccc(-c2cccc3[nH]c(-c4n[nH]c5ccc(-c6cncc(CN7CCC(F)(F)C7)c6)nc45)nc23)c1 [Compound 26, 5-(5-((3,3-Difluoropyrrolidin-1-yl)methyl)pyridin-3-yl)-3-(4-(3-fluorophenyl)-1H-benzo[d]imidazol-2-yl)-1H-pyrazolo[4,3-b]pyridine] | 2.1 µM | 5.82 µM | 5.18 µM | – | – | –
CC(C)(C)C(=O)Nc1cncc(-c2ccc3[nH]nc(-c4nc5c(-c6ccc(F)cc6)cccc5[nH]4)c3n2)c1 [Compound 36, N-(5-(3-(4-(4-Fluorophenyl)-1H-benzo[d]imidazol-2-yl)-1H-pyrazolo[4,3-b]pyridin-5-yl)pyridin-3-yl)pivalamide] | 3.01 µM | 8.48 µM | > 10 µM | 25.7% | – | –
Fc1ccc(-c2cccc3[nH]c(-c4n[nH]c5ccc(-c6cncc(CN7CCCC7)c6)nc45)nc23)cc1 [Compound 42, 3-(4-(4-Fluorophenyl)-1H-benzo[d]imidazol-2-yl)-5-(5-(pyrrolidin-1-ylmethyl)pyridin-3-yl)-1H-pyrazolo[4,3-b]pyridine] | 1.08 µM | 0.547 µM | 0.389 µM | – | – | –
O=C(Nc1cncc(-c2ccc3[nH]nc(-c4nc5c(-c6ccc(F)cc6)cccc5[nH]4)c3n2)c1)C1CCC1 [Compound 49, N-(5-(3-(4-(4-Fluorophenyl)-1H-benzo[d]imidazol-2-yl)-1H-pyrazolo[4,3-b]pyridin-5-yl)pyridin-3-yl)cyclobutanecarboxamide] | > 10 µM | > 10 µM | > 10 µM | 43.6% | 28.3% | 12.9%
Fc1ccc(-c2cccc3[nH]c(-c4n[nH]c5ccc(-c6cncnc6)nc45)nc23)cc1 [Compound 55, 3-(4-(4-Fluorophenyl)-1H-benzo[d]imidazol-2-yl)-5-(pyrimidin-5-yl)-1H-pyrazolo[4,3-b]pyridine] | > 10 µM | > 10 µM | > 10 µM | 38.8% | 6.5% | 4.1%
Nc1cncc(-c2ccc3[nH]nc(-c4nc5c(-c6ccccc6F)cccc5[nH]4)c3n2)c1 [Compound 59, 5-(3-(4-(2-Fluorophenyl)-1H-benzo[d]imidazol-2-yl)-1H-pyrazolo[4,3-b]pyridin-5-yl)pyridin-3-amine] | 1.34 µM | 1.64 µM | 0.487 µM | – | – | –
CC(C)C(=O)Nc1cncc(-c2ccc3[nH]nc(-c4nc5c(-c6ccccc6F)cccc5[nH]4)c3n2)c1 [Compound 65, N-(5-(3-(4-(2-fluorophenyl)-1H-benzo[d]imidazol-2-yl)-1H-pyrazolo[4,3-b]pyridin-5-yl)pyridin-3-yl)isobutyramide] | 5.1 µM | > 10 µM | > 10 µM | 30.7% | – | 16.1%
CC(C)(C)CC(=O)Nc1cncc(-c2ccc3[nH]nc(-c4nc5c(-c6ccccc6F)cccc5[nH]4)c3n2)c1 [Compound 72, N-(5-(3-(4-(2-Fluorophenyl)-1H-benzo[d]imidazol-2-yl)-1H-pyrazolo[4,3-b]pyridin-5-yl)pyridin-3-yl)-3,3-dimethylbutanamide] | > 10 µM | > 10 µM | > 10 µM | 14.1% | 11.6% | 2%
O=C(Nc1cncc(-c2ccc3[nH]nc(-c4nc5c(-c6ccccc6F)cccc5[nH]4)c3n2)c1)C1CCCC1 [Compound 78, N-(5-(3-(4-(2-Fluorophenyl)-1H-benzo[d]imidazol-2-yl)-1H-pyrazolo[4,3-b]pyridin-5-yl)pyridin-3-yl)cyclopentanecarboxamide] | > 10 µM | > 10 µM | > 10 µM | 19.1% | 29% | 20%
Fc1ccccc1-c1cccc2[nH]c(-c3n[nH]c4ccc(-c5cncc(CNCC6CCCC6)c5)nc34)nc12 [Compound 81, 1-Cyclopentyl-N-((5-(3-(4-(2-fluorophenyl)-1H-benzo[d]imidazol-2-yl)-1H-pyrazolo[4,3-b]pyridin-5-yl)pyridin-3-yl)methyl)methanamine] | 1.14 µM | 1.14 µM | 3.6 µM | – | – | –
c1cncc(-c2ccc3[nH]nc(-c4nc5c(-c6cccnc6)cccc5[nH]4)c3n2)c1 [Compound 88, 5-(Pyridin-3-yl)-3-(4-(pyridin-3-yl)-1H-benzo[d]imidazol-2-yl)-1H-pyrazolo [4,3-b]pyridine] | 2.62 µM | 6.69 µM | > 10 µM | 31.8% | – | –
CC(C)C(=O)Nc1cncc(-c2ccc3[nH]nc(-c4nc5c(-c6cccnc6)cccc5[nH]4)c3n2)c1 [Compound 93, N-(5-(3-(4-(Pyridin-3-yl)-1H-benzo[d]imidazol-2-yl)-1H-pyrazolo[4,3-b]pyridin-5-yl)pyridin-3-yl)isobutyramide] | 3.78 µM | > 10 µM | > 10 µM | 42.5% | – | 29.9%
CC(C)Nc1cncc(-c2ccc3[nH]nc(-c4nc5c(-c6cccnc6)cccc5[nH]4)c3n2)c1 [Compound 96, N-Isopropyl-5-(3-(4-(pyridin-3-yl)-1H-benzo[d]imidazol-2-yl)-1H-pyrazolo [4,3-b]pyridin-5-yl)pyridin-3-amine] | 2.54 µM | 8.95 µM | 1.74 µM | – | – | –
c1ccc(CNCc2cncc(-c3ccc4[nH]nc(-c5nc6c(-c7cccnc7)cccc6[nH]5)c4n3)c2)cc1 [Compound 108, N-Benzyl-1-(5-(3-(4-(pyridin-3-yl)-1H-benzo[d]imidazol-2-yl)-1H-pyrazolo [4,3-b]pyridin-5-yl)pyridin-3-yl)methanamine] | 2.3 µM | 3.18 µM | 2.12 µM | – | – | –
Cc1ccncc1-c1ccc2[nH]nc(-c3nc4c(-c5ccncc5)cccc4[nH]3)c2n1 [Compound 117, 5-(4-Methylpyridin-3-yl)-3-(4-(pyridin-4-yl)-1H-benzo[d]imidazol-2-yl)-1H-pyrazolo[4,3-b]pyridine] | > 10 µM | > 10 µM | > 10 µM | 51.4% | 44.9% | 16.9%
